In US12268694B2, “Combination pharmaceutical agents as RSV inhibitors” (Enanta Pharmaceuticals, Inc., priority 2017, dated 2025):

Key:
[1] = tested on: genotype A, "Long" strain RSV; assay: RSV-A assay: CPE protection in HEp-2 cells, ATPlite readout; assay type: cell-based, human respiratory syncytial virus; details: human respiratory syncytial virus, HEp-2, read-out: Human RSV-A (“Long” strain) EC50
How it was run: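 HEp-2 cells (8,000/well) with 2-fold compound dilutions in duplicate, infected with Long-strain RSV at MOI 0.1 and incubated 5 days. Cell ATP measured by ATPlite luminescence to give EC50; uninfected parallel plate gives CC50.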

[2] = Cytotoxicity in parallel to the RSV-A assay (no virus), ATPlite readout; assay type: cell-based, human; details: human, HEp-2 cells (uninfected)
How it was run: (§1)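 HEp-2 cells at 8,000/well in DMEM with 10% heat-inactivated FBS received 2-fold serial compound dilutions in duplicate and growth media in place of virus. After 5 days cell viability was read as ATP content by ATPlite luminescence to give CC50.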

HEp-2 cells = assay: as above; assay type: cell-based, human
How it was run: as §1

[3] = tested on: RSV genotype B, strain 9320; assay: RSV-B assay: A549 cells infected with RSV-B, qPCR or ATPlite readout; assay type: cell-based; details: human respiratory syncytial virus, A549, 144 h, read-out: Human RSV-B EC50
Excerpt: HEp-2 cells, (originally derived from tumors grown in irradiated-cortisonised weanling rats that had been injected with epidermoid carcinoma tissue from a person's larynx, but later found to be indistinguishable from HeLa cells by PCR DNA analysis), were used for the culturing of genotype B, strain 9320. Flasks were inoculated with RSV-B and viral stocks were collected once cytopathic effect (CPE) was greater than […]. Viral stocks in 25% sucrose media were snap frozen using liquid nitrogen to increase viral stability. Viral stock titers were quantified by tissue culture infectious dose 50% (TCID50) using 8,000 cells per well and 5-fold viral dilutions across a 96-well plate, cultured for 4 days. Viral stock titers were also quantified by a plaque forming unit assay, as described elsewhere.
The assay is run as follows: A549 cells (originally derived through explant culture from a person's carcinomatous lung tissue) are seeded into the inner 60 wells of a 96-well plate at 3,000 cells per well in a volume of 50 μL using A549 growth media (F-12K Media, 1% Penn/Strep, 1% nonessential amino acids, 10% heat-inactivated FBS). 2-fold serial dilutions of control and test compounds are added to the wells in duplicate in a total volume of 25 μL. Viral stock is then added to the wells at a multiplicity of infection (MOI) of 0.5 in a volume of 25 μL, bringing the total volume of each well to 100 μL. The MOI is calculated using the PFU/mL, or TCID50 if unavailable. Each 96-well plate has a control column of 6 wells with cells and virus but no compound (negative control, max CPE), a column with cells but no compound or virus (positive control, minimum CPE), and a column with no cells or virus or compound (background plate/reagent control). The control wells with cells but no virus are given an additional 25 μL of growth media containing an equal quantity of sucrose as those wells receiving the viral stock in order to keep consistent in media and volume conditions. The outer wells of the plate are filled with 125 μL of moat media (DMEM, 1% Penn/Strep) to act as a thermal and evaporative moat around the test wells. 6 days post infection, the plates are read using qPCR or ATP lite (50 μL added per well), which quantifies the amount of ATP (a measure of cell health) present in each well. Assay plates treated with APTlite are read using the Envision luminometer. […] EC50 ranges are as follows: A <0.4 μM; B 0.4-0.8 μM; C >0.8 μM.

Compound	EC50 [1]	CC50 at 5 days [2]	CC50 (HEp-2 cells)	EC50 [3]
O=C1Nc2ccccc2C(c2ccccc2)=NC1Nc1nnc(-c2ccc3ncsc3c2)o1 (centres unmarked) [Example 42]	400 to 800 nM	> 50000 nM	–	–
O=C1Nc2ccccc2C(c2ccccc2)=N[C@@H]1Nc1nnc(-c2ccc(F)cc2)o1 [Example 7a]	400 to 800 nM	–	> 50000 nM	> 800 nM
O=C1Nc2ccccc2C(c2ccccc2)=N[C@@H]1Nc1nnc(-c2cccnc2N2CCOCC2)o1 [Example 242]	< 400 nM	–	–	< 400 nM
CN1CCN(c2ccccc2-c2nnc(NC3N=C(c4ccccc4)c4ccccc4NC3=O)o2)CC1 (centres unmarked) [Example 224]	> 800 nM	–	–	< 400 nM
CN(C)c1ccc(-c2nnc(NC3N=C(c4ccccc4)c4ccccc4NC3=O)o2)nc1 (centres unmarked) [Example 108]	> 800 nM	–	–	> 800 nM
O=C1Nc2ccccc2C(c2ccccc2)=N[C@@H]1Nc1nnc(-c2nc(-c3ccncc3)sc2N2CCOCC2)o1 [Example 429]	< 400 nM	–	–	< 400 nM
O=C1Nc2ccccc2C(c2ccccc2)=N[C@@H]1Nc1nnc(-c2nc3ccccc3cc2N2CCOCC2)o1 [Example 322]	< 400 nM	–	–	< 400 nM
O=C1Nc2ccccc2C(c2ccccc2)=NC1Nc1ccc(-c2ccccc2)nn1 (centres unmarked) [Example 95]	400 to 800 nM	–	–	> 800 nM
